Data taken from PubChem BioAssay (NCI).
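Protocol summary: plate cells (96-well), add compound at 5 concentrations, incubate 48 h, interpolate endpoints linearly. TGI: total growth inhibition.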

Tests used:
Experiment in all cases: NCI-60 cell line screen, 48 h
SK-MEL-5 melanoma = test system: SK-MEL-5 melanoma
DU-145 prostate = test system: DU-145 prostate
SF-539 CNS = test system: SF-539 CNS
UACC-257 melanoma = test system: UACC-257 melanoma
CAKI-1 renal = test system: CAKI-1 renal
A549 NSCLC = test system: A549 NSCLC
786-0 renal = test system: 786-0 renal
SF-295 CNS = test system: SF-295 CNS
RXF 393 renal = test system: RXF 393 renal
HCT-116 colon = test system: HCT-116 colon
BT-549 breast = test system: BT-549 breast
OVCAR-4 ovarian = test system: OVCAR-4 ovarian
HT29 colon = test system: HT29 colon
M14 melanoma = test system: M14 melanoma
SF-268 CNS = test system: SF-268 CNS
NCI/ADR-RES ovarian = test system: NCI/ADR-RES ovarian
PC-3 prostate = test system: PC-3 prostate
HL-60(TB) leukemia = test system: HL-60(TB) leukemia
NCI-H522 lung = test system: NCI-H522 lung
MOLT-4 leukemia = test system: MOLT-4 leukemia
MDA-N = test system: MDA-N
HCC-2998 colon = test system: HCC-2998 colon
ACHN renal = test system: ACHN renal
IGROV1 ovarian = test system: IGROV1 ovarian
TK-10 renal = test system: TK-10 renal
OVCAR-3 ovarian = test system: OVCAR-3 ovarian
SR leukemia = test system: SR leukemia
OVCAR-8 ovarian = test system: OVCAR-8 ovarian
SN12C renal = test system: SN12C renal
CCRF-CEM leukemia = test system: CCRF-CEM leukemia
HS 578T breast = test system: HS 578T breast
T-47D breast = test system: T-47D breast
MDA-MB-435 = test system: MDA-MB-435
MCF7 breast = test system: MCF7 breast
HOP-62 NSCLC = test system: HOP-62 NSCLC
SW-620 colon = test system: SW-620 colon
MDA-MB-231 breast = test system: MDA-MB-231 breast
SK-OV-3 ovarian = test system: SK-OV-3 ovarian
SK-MEL-28 melanoma = test system: SK-MEL-28 melanoma
RPMI-8226 leukemia = test system: RPMI-8226 leukemia
SNB-19 CNS = test system: SNB-19 CNS
SNB-75 CNS = test system: SNB-75 CNS
COLO 205 colon = test system: COLO 205 colon
HCT-15 colon = test system: HCT-15 colon
MALME-3M melanoma = test system: MALME-3M melanoma
EKVX NSCLC = test system: EKVX NSCLC
KM12 colon = test system: KM12 colon
NCI-H23 lung = test system: NCI-H23 lung
HOP-92 NSCLC = test system: HOP-92 NSCLC
UACC-62 melanoma = test system: UACC-62 melanoma
U251 CNS = test system: U251 CNS
SK-MEL-2 melanoma = test system: SK-MEL-2 melanoma
UO-31 renal = test system: UO-31 renal
K-562 leukemia = test system: K-562 leukemia
NCI-H226 lung = test system: NCI-H226 lung
A498 renal = test system: A498 renal
OVCAR-5 ovarian = test system: OVCAR-5 ovarian
NCI-H460 lung = test system: NCI-H460 lung
LOX IMVI melanoma = test system: LOX IMVI melanoma

Measured: TGI

CCN(CC)CCn1c2cc3c(cc2c(=O)c2cccnc21)OCCO3
> 10 µM: SK-MEL-5 melanoma | DU-145 prostate | SF-539 CNS | UACC-257 melanoma | CAKI-1 renal | A549 NSCLC | 786-0 renal | SF-295 CNS | RXF 393 renal | HCT-116 colon | BT-549 breast | OVCAR-4 ovarian | HT29 colon | M14 melanoma | SF-268 CNS | NCI/ADR-RES ovarian | PC-3 prostate | HL-60(TB) leukemia | NCI-H522 lung | MOLT-4 leukemia | MDA-N | HCC-2998 colon | ACHN renal | IGROV1 ovarian | TK-10 renal | OVCAR-3 ovarian | SR leukemia | OVCAR-8 ovarian | SN12C renal | CCRF-CEM leukemia | HS 578T breast | T-47D breast | MDA-MB-435 | MCF7 breast | HOP-62 NSCLC | SW-620 colon | MDA-MB-231 breast | SK-OV-3 ovarian | SK-MEL-28 melanoma | RPMI-8226 leukemia | SNB-19 CNS | SNB-75 CNS | COLO 205 colon | HCT-15 colon | MALME-3M melanoma | EKVX NSCLC | KM12 colon | NCI-H23 lung | HOP-92 NSCLC | UACC-62 melanoma | U251 CNS

N#CC1=C(N)OC2=C(CSc3ccccc32)C1c1ccc(Br)cc1 (centres undefined)
31.2 µM: TK-10 renal
14.8 µM: OVCAR-8 ovarian
23.8 µM: SW-620 colon
7.75 µM: NCI/ADR-RES ovarian
10.8 µM: COLO 205 colon
30.2 µM: UACC-257 melanoma
19.9 µM: U251 CNS
13.7 µM: SF-539 CNS
27 µM: SK-OV-3 ovarian
51.9 µM: SNB-19 CNS
22.8 µM: 786-0 renal
21.8 µM: UACC-62 melanoma
20.4 µM: SN12C renal
11.2 µM: LOX IMVI melanoma
25.7 µM: SK-MEL-5 melanoma
26.7 µM: UO-31 renal
21.7 µM: SNB-75 CNS
29 µM: SF-295 CNS
21.6 µM: OVCAR-3 ovarian
39.8 µM: M14 melanoma
25.6 µM: SF-268 CNS
27.9 µM: NCI-H226 lung
21.5 µM: HOP-92 NSCLC
> 100 µM: DU-145 prostate | HS 578T breast
26.8 µM: NCI-H460 lung
27.2 µM: A549 NSCLC | A498 renal
24.5 µM: HCT-15 colon
16.8 µM: PC-3 prostate
13.8 µM: MCF7 breast
29.3 µM: MDA-MB-231 breast
23 µM: SK-MEL-2 melanoma
44.6 µM: KM12 colon
26.4 µM: CAKI-1 renal | NCI-H23 lung
14.4 µM: MDA-N
11.4 µM: EKVX NSCLC
8.44 µM: MOLT-4 leukemia
25.8 µM: IGROV1 ovarian | T-47D breast
6.83 µM: CCRF-CEM leukemia
6.17 µM: HL-60(TB) leukemia
28 µM: SK-MEL-28 melanoma
10.3 µM: SR leukemia
7.82 µM: MDA-MB-435
30.7 µM: MALME-3M melanoma
32.7 µM: HOP-62 NSCLC | OVCAR-5 ovarian
14.2 µM: HCT-116 colon
18.4 µM: HT29 colon
28.4 µM: BT-549 breast
19.3 µM: OVCAR-4 ovarian
11.3 µM: K-562 leukemia
5.52 µM: RPMI-8226 leukemia
16.3 µM: RXF 393 renal

Cc1cn(C2CC(N)C(CN)O2)c(=O)[nH]c1=O (centres undefined)
> 100 µM: SK-MEL-5 melanoma | DU-145 prostate | SF-539 CNS | UACC-257 melanoma | CAKI-1 renal | A549 NSCLC | 786-0 renal | SF-295 CNS | RXF 393 renal | HCT-116 colon | SK-MEL-2 melanoma | UO-31 renal | BT-549 breast | OVCAR-4 ovarian | HT29 colon | K-562 leukemia | M14 melanoma | SF-268 CNS | NCI/ADR-RES ovarian | PC-3 prostate | HL-60(TB) leukemia | NCI-H522 lung | MOLT-4 leukemia | MDA-N | HCC-2998 colon | NCI-H226 lung | ACHN renal | IGROV1 ovarian | A498 renal | TK-10 renal | OVCAR-3 ovarian | SR leukemia | OVCAR-8 ovarian | SN12C renal | CCRF-CEM leukemia | HS 578T breast | T-47D breast | MDA-MB-435 | MCF7 breast | HOP-62 NSCLC | SW-620 colon | OVCAR-5 ovarian | SK-OV-3 ovarian | SK-MEL-28 melanoma | RPMI-8226 leukemia | SNB-19 CNS | NCI-H460 lung | SNB-75 CNS | COLO 205 colon | HCT-15 colon | MALME-3M melanoma | EKVX NSCLC | KM12 colon | NCI-H23 lung | HOP-92 NSCLC | UACC-62 melanoma | U251 CNS
